Reference: EP3187180A1, “ADENOSYLHOMOCYSTEINASE BINDING SUBSTANCES FOR MEDICAL USE” (Ludwig-Maximilians-Universität München, priority 2015, dated 2017)
Numbering of substitutions follows the chain as printed. Read-outs that look alike come from different tables or passages of the source.

Experiments:
[1] = system: AHCY wild-type and mutated AHCY proteins; experiment: Differential Scanning Fluorimetry (DSF), statements over the panel of proteins; type: binding, human; settings: wild-type and/or mutated AHCY proteins, 1-100 µM or 5-100 µM
AHCY R49C = molecular target: T1, AHCY R49C (Homo sapiens, UniProt P23526, R49C); experiment: Differential Scanning Fluorimetry (DSF), thermal unfolding; type: binding; settings: for TM = Temperature at the midpoint of protein unfolding transition: No NAD^+: 49,84
T1 construct: made in house; host or cells: E. coli DH5a (with or without GroESL co-expression)
T1 sequence (P23526 1-432 R49C): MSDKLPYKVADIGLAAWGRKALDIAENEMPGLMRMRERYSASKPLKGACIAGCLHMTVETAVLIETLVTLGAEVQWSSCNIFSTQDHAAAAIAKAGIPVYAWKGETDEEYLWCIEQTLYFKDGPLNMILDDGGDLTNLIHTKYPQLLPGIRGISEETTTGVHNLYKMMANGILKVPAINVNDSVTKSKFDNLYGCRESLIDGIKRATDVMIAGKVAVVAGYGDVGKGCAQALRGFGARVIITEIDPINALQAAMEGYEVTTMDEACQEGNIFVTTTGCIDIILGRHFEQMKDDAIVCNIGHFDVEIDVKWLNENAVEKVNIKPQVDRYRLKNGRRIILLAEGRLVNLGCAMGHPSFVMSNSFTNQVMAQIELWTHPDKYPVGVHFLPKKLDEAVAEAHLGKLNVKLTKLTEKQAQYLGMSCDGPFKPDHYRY
Protocol: (§1) The potential of the binding of NAD^+ or an analogue of NAD^+ to the NAD^+ binding site and of the binding of an analogue of a substrate of AHCY to the substrate binding site of AHCY in stabilizing the enzyme and its activity was analyzed by use of Differential Scanning Fluorimetry (DSF). The following substrates were tested in the given concentrations:
(§2) The following five mutant proteins were selected for testing: • R49C, D86G, Y143C, A89V and Y379C.
(§3) Fluorescence measurements were carried out on a 7900 HT fast real-time PCR System (Applied Biosystems, Thermo Fisher Scientific Inc. USA). The data was recorded in Abi Prism SDS software. Samples contained AHCY-Maltose-Binding Protein fusion proteins, HEPES, and SYPRO Orange fluorescence dye (SYPRO® Orange Protein Gel Stain from Invitrogen, Thermo Fisher Scientific Inc. USA) in a 1:1000 dilution), which binds to exposed hydrophobic sites of unfolded proteins. For this dye, the wavelengths used for excitation and emission are 492 nm, respectively 610 nm. The assay was measured in quadruplicates on a 96-well PCR plate. Thermal denaturation was monitored by following the changes in SYPRO Orange fluorescence emission (excitation at 492 nm, emission at 610 nm). The measurement was performed in a 25 °C to 75 °C range, at a rate of 2 °C/min. Thermal denaturation curves were obtained by the plotting of fluorescence intensities against temperature and TM values as the midpoint of the protein-unfolding transition were calculated using the Boltzmann sigmoidal non-linear regression function in GraphPad Prism (GraphPad Prism 5.0, GraphPad Software Inc. USA). All measurements were corrected for background reduction of SYPRO Orange fluorescence. To analyze the stabilizing effect of different compounds different concentrations of NAD^+, NAD^+ analogues and substrate analogues were added to the samples. Significances between wild-type and mutated apoenzymes and holoenzymes with stabilizing agents were calculated by one-way analysis of variance followed by Dunnett's post test (GraphPad Prism 5.0, GraphPad Software Inc. USA).
(§4) DSF is an excellent means to monitor global thermal unfolding events by probing the accessibility of the fluorescent dye Sypro Orange to hydrophobic groups within a protein. DSF was used in order to assess whether mutated AHCY proteins can be stabilized by various compounds at increasing temperatures. The stabilizing effect was evaluated by comparison of the unfolding transition midpoints (fraction unfolded = 0.5) as an operative measure of protein stability and by graphical analysis of the thermal denaturation curves. The midpoint of thermal unfolding of wild-type AHCY was shifted by an average of 2.27 °C towards higher temperatures by NAD^+ and NAD^+ analogues.

AHCY D86G = molecular target: T2, AHCY D86G (Homo sapiens, UniProt P23526, D86G); experiment: as above; type: binding; settings: for TM = Temperature at the midpoint of protein unfolding transition: No NAD^+: 49,55; for ΔTm at 100 µM: read-out: ΔTM (midpoint of thermal unfolding shifted by)
T2 construct: made in house; host or cells: E. coli DH5a (with or without GroESL co-expression)
T2 sequence (P23526 1-432 D86G): T1 sequence (P23526 1-432 R49C) with C49R, D86G
Protocol: as §1, §2, §3, §4

AHCY A89V = molecular target: T3, AHCY A89V (Homo sapiens, UniProt P23526, A89V); experiment: as above; type: binding; settings: for TM = Temperature at the midpoint of protein unfolding transition: No NAD^+: 50,29
T3 construct: made in house; host or cells: E. coli DH5a (with or without GroESL co-expression)
T3 sequence (P23526 1-432 A89V): T1 sequence (P23526 1-432 R49C) with C49R, A89V
Protocol: as §1, §2, §3, §4

AHCY Y143C = molecular target: T4, AHCY Y143C (Homo sapiens, UniProt P23526, Y143C); experiment: as above; type: binding; settings: No NAD^+: 49,34
T4 construct: made in house; host or cells: E. coli DH5a (with or without GroESL co-expression)
T4 sequence (P23526 1-432 Y143C): T1 sequence (P23526 1-432 R49C) with C49R, Y143C
Protocol: as §1, §2, §3, §4

AHCY Y379C = molecular target: T5, AHCY Y379C (Homo sapiens, UniProt P23526, Y379C); experiment: as above; type: binding; settings: No NAD^+: 50,01
T5 construct: made in house; host or cells: E. coli DH5a (with or without GroESL co-expression)
T5 sequence (P23526 1-432 Y379C): T1 sequence (P23526 1-432 R49C) with C49R, Y379C
Protocol: as §1, §2, §3, §4

wild-type AHCY = molecular target: T6, wild-type AHCY (Homo sapiens, UniProt P23526); experiment: as above; type: binding; settings: for TM = Temperature at the midpoint of protein unfolding transition: Wt, No NAD^+: 51,98
T6 construct: made in house; host or cells: E. coli DH5a (with or without GroESL co-expression)
Protocol: as §1, §3, §4

T6 sequence (P23526 whole entry): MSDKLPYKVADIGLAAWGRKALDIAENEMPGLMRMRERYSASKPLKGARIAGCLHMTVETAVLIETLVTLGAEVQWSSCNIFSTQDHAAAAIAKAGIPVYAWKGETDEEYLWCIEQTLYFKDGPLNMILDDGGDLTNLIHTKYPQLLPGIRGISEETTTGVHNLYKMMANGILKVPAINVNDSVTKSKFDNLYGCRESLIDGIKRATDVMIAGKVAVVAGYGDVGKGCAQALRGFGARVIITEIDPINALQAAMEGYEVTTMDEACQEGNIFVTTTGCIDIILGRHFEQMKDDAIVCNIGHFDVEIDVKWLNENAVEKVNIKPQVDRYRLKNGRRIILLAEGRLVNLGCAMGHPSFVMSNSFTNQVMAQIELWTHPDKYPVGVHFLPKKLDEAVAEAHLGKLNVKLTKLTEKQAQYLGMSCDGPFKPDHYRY

NC(=O)c1ccc[n+]([C@@H]2O[C@H](COP(=O)([O-])OP(=O)(O)OC[C@H]3O[C@@H](n4cnc5c4ncn4ccnc54)[C@H](O)[C@@H]3O)[C@@H](O)[C@H]2O)c1 [E-NAD^+, nicotinamide 1,N^6-ethenoadenine dinucleotide]
stabilizing effect on thermal stability (in words) [1]: considerable stabilization | ΔTM (increase in TM) (AHCY R49C; concentration not given): 4.36 °C

Nc1nccc2c1ncn2[C@@H]1C=C(CO)[C@@H](O)[C@H]1O [DZNep, 3-Deazaneplanocin A]
increase in TM (stabilizing the unfolding by) (AHCY D86G; D86G, concentration not given): 11.18 °C | ΔTm at 10 µM (AHCY D86G; read-out: ΔTM): 13.5 °C

C=C1CCC[C@H]2[C@](C)(CC3=C(O)C(=O)C=C(OC)C3=O)[C@@H](C)CC[C@]12C [ilimaquinone]
shifting the midpoint of thermal unfolding by (AHCY A89V; concentration not given): 8.9 °C

NC(=O)c1ccc[n+]([C@@H]2O[C@H](COP(=O)([O-])OP(=O)(O)OC[C@H]3O[C@@H](n4cnc5c(N)ncnc54)[C@H](O)[C@@H]3O)[C@@H](O)[C@H]2O)c1 [NAD^+, nicotinamide adenine dinucleotide]
stabilizing effect on thermal stability (in words) [1]: very good effects | TM = Temperature at the midpoint of protein unfolding transition (AHCY D86G; D86G, 5 µM): 51,88 | TM = Temperature at the midpoint of protein unfolding transition (AHCY D86G; D86G, 11 µM): 53,51 | TM = Temperature at the midpoint of protein unfolding transition (AHCY D86G; D86G, 100 µM): 54,02 | ΔTm at 100 µM (AHCY D86G): 4.47 °C | TM = Temperature at the midpoint of protein unfolding transition (AHCY Y143C; 5 µM): 50,62 | TM = Temperature at the midpoint of protein unfolding transition (AHCY Y143C; 11 µM): 52,36 | TM = Temperature at the midpoint of protein unfolding transition (AHCY Y143C; 100 µM): 52,17 | TM = Temperature at the midpoint of protein unfolding transition (AHCY Y379C; 5 µM): 51,31 | TM = Temperature at the midpoint of protein unfolding transition (AHCY Y379C; 11 µM): 52,45 | TM = Temperature at the midpoint of protein unfolding transition (AHCY Y379C; 100 µM): 52,48 | TM = Temperature at the midpoint of protein unfolding transition (AHCY A89V; 5 µM): 51,97 | TM = Temperature at the midpoint of protein unfolding transition (AHCY A89V; 11 µM): 53,52 | TM = Temperature at the midpoint of protein unfolding transition (AHCY A89V; 100 µM): 54,59 | TM = Temperature at the midpoint of protein unfolding transition (AHCY R49C; 5 µM): 51,48 | TM = Temperature at the midpoint of protein unfolding transition (AHCY R49C; 11 µM): 52,55 | TM = Temperature at the midpoint of protein unfolding transition (AHCY R49C; 100 µM): 52,75 | ΔTm at 100 µM (wild-type AHCY; AHCY wild-type, 100 µM, read-out: stabilized the unfolding transition by (shift of TM)): 2.34 °C | TM = Temperature at the midpoint of protein unfolding transition (wild-type AHCY; 5 µM): 52,24 | TM = Temperature at the midpoint of protein unfolding transition (wild-type AHCY; 11 µM): 53,99 | TM = Temperature at the midpoint of protein unfolding transition (wild-type AHCY; 100 µM): 54,32

NC(=O)c1ncn([C@@H]2O[C@H](CO)[C@@H](O)[C@H]2O)n1 [ribavirin, 1-[(2R,3R,4S,5R)-3,4-dihydroxy-5-(hydroxymethyl)oxolan-2-yl]-1H-1,2,4-triazole-3-carboxamide]
stabilizing effect on thermal stability (in words) [1]: good stabilizing effect

NC(=S)c1ccc[n+]([C@@H]2O[C@H](COP(=O)([O-])OP(=O)(O)OC[C@H]3O[C@@H](n4cnc5c(N)ncnc54)[C@H](O)[C@@H]3O)[C@@H](O)[C@H]2O)c1 [S-NAD^+, thionicotinamide adenine dinucleotide]
stabilizing effect on thermal stability (in words) [1]: improved resistance against thermal stress | ΔTm at 100 µM (AHCY D86G; D86G, 100 µM): 6.7 °C
